We go through 2 compounds from US9422267B2, “Fused pyrimidine compounds and use thereof” (Medivation Technologies, Inc., priority 2012, dated 2016).

One assay has as its target T1, INSR (Homo sapiens, UniProt P06213).
T1 construct: purchased Caliper LifeSciences (ProfilerPro Kinase Selectivity Assay Kits)
The experiment in a line: Caliper kinase profiling: INSR. The assay is classed as biochemical. As to conditions: for inhibition at 0.01 µM: 10 nM, read-out: Average % Inh @ 10 nM.

The next assay addresses T2, Mer (Homo sapiens, UniProt Q12866).
T2 construct: purchased Caliper LifeSciences (ProfilerPro Kinase Selectivity Assay Kits)
T2 sequence (Q12866 21-999): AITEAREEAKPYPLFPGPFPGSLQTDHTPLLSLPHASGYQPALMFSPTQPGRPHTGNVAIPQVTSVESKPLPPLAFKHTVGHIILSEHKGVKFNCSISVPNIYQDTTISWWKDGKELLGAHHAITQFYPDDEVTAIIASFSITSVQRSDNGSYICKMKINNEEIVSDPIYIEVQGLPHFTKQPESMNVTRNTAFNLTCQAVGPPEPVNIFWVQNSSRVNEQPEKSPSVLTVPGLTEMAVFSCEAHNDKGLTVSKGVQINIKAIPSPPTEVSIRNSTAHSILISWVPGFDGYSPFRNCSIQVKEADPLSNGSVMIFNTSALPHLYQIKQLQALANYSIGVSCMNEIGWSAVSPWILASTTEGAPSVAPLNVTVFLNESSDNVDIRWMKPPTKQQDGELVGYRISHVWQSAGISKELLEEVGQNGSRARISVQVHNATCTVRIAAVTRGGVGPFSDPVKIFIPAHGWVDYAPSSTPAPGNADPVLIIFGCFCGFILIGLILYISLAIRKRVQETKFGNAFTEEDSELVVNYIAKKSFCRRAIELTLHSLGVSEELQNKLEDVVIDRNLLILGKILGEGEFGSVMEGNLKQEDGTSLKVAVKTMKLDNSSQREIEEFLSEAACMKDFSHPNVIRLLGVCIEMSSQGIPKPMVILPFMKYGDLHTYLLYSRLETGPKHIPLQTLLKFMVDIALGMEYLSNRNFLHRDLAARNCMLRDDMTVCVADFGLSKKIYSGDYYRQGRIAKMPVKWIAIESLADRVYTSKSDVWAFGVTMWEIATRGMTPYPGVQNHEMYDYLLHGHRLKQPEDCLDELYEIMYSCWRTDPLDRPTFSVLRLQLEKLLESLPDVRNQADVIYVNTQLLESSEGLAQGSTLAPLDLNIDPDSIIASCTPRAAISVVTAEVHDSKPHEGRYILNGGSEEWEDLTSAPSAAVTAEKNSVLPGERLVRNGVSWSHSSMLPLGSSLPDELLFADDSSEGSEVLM
Put plainly: Caliper kinase profiling: Mer. In kind it is biochemical. The following applies: for inhibition at 0.01 µM: 10 nM, read-out: Average % Inh @ 10 nM.

The target in a further assay is T3, ROS(ROS1) (Homo sapiens, UniProt P08922).
T3 construct: purchased Caliper LifeSciences (ProfilerPro Kinase Selectivity Assay Kits)
Put plainly: Caliper kinase profiling: ROS(ROS1). In kind it is biochemical. As to conditions: for inhibition at 0.01 µM: 10 nM, read-out: Average % Inh @ 10 nM. From the text:
ROS1 is a proto-oncogene and is highly expressed in many cancers.

The next assay concerns the target AurB (Homo sapiens, UniProt Q96GD4). The experiment in a line: Caliper kinase profiling: AurB.
Another assay deals with T4, AurC (Homo sapiens, UniProt Q9UQB9).
T4 sequence (Q9UQB9 1-309): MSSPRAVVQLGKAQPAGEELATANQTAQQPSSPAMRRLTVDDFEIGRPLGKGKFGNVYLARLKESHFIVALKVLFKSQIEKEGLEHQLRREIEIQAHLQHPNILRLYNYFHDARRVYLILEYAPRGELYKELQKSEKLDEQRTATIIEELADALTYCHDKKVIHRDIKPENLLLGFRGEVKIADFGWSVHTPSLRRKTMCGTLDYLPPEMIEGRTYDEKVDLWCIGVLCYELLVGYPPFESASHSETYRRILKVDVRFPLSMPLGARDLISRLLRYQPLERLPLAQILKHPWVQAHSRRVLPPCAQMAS
Put plainly: Caliper kinase profiling: AurC.

Another assay addresses T5, ALK (Homo sapiens, UniProt Q9UM73).
T5 construct: purchased Caliper LifeSciences (ProfilerPro Kinase Selectivity Assay Kits)
Put plainly: Caliper kinase profiling: ALK. In kind it is biochemical.

The next assay addresses T6, BMX (Homo sapiens, UniProt P51813).
T6 sequence (P51813 1-675): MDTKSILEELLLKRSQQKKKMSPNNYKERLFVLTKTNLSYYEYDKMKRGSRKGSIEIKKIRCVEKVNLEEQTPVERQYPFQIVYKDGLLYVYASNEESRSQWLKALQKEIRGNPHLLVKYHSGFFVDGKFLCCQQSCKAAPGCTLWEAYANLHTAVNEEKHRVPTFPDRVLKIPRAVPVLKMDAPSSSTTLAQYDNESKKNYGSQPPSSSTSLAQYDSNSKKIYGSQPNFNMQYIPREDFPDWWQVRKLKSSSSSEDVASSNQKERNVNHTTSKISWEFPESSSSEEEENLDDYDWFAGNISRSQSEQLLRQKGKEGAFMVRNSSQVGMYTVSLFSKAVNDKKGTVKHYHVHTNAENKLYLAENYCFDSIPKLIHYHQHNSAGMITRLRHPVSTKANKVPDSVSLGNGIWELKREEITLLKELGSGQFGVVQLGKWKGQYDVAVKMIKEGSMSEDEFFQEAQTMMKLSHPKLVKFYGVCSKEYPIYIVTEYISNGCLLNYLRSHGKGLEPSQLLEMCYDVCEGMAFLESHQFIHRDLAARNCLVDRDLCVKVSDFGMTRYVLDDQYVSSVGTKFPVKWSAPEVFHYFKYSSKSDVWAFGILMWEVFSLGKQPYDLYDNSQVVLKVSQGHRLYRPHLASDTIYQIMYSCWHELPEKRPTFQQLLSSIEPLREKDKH
The experiment in a line: Caliper kinase profiling: BMX. The assay is classed as biochemical.

The target in the next assay is Fer (Homo sapiens, UniProt P16591). The experiment in a line: Caliper kinase profiling: Fer. In kind it is biochemical.
Chain of Fer (P16591 whole entry): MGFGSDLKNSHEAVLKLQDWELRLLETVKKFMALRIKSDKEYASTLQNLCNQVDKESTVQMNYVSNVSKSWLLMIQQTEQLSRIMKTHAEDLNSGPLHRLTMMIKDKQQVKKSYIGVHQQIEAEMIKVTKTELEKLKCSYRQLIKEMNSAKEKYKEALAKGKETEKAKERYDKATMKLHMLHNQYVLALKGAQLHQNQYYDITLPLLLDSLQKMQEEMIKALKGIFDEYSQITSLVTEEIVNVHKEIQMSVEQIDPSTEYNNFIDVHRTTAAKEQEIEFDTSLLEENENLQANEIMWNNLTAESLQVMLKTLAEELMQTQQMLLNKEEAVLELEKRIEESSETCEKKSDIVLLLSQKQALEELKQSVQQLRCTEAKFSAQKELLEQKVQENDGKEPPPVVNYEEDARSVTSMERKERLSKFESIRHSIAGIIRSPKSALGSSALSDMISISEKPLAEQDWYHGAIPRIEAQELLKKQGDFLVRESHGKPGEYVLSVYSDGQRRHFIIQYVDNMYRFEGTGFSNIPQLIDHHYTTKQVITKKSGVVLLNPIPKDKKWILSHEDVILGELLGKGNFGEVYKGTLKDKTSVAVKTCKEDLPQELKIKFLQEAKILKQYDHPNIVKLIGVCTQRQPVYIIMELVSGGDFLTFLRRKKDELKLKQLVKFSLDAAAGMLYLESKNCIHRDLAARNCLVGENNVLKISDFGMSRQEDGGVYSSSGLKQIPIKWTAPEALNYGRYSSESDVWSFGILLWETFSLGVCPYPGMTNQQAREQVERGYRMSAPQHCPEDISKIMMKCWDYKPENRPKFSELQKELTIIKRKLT
A further assay addresses FGFR3 (Homo sapiens, UniProt P22607). Put plainly: Caliper kinase profiling: FGFR3. In kind it is biochemical. The following applies: FGFR3, 1 μM; read-out: Average % Inh @ 1 μM.
The next assay concerns the target Yes (Homo sapiens, UniProt P07947). The experiment in a line: Caliper kinase profiling: Yes. In kind it is biochemical.
Setting [1] is: 1 nM, read-out: Average % Inh @ 1 nM.
The mark [2] stands for this setting: 100 nM, read-out: Average % Inh @ 100 nM.
The mark [3] stands for this setting: 1 μM, read-out: Average % Inh @ 1 μM.
[4] abbreviates: 10 nM, read-out: Average % Inh @ 10 nM.
Setting [5] is: read-out: Average % Inh @ 10 nM.
[6] abbreviates: read-out: Average % Inh @ 100 nM.

T5 sequence (Q9UM73 19-1620): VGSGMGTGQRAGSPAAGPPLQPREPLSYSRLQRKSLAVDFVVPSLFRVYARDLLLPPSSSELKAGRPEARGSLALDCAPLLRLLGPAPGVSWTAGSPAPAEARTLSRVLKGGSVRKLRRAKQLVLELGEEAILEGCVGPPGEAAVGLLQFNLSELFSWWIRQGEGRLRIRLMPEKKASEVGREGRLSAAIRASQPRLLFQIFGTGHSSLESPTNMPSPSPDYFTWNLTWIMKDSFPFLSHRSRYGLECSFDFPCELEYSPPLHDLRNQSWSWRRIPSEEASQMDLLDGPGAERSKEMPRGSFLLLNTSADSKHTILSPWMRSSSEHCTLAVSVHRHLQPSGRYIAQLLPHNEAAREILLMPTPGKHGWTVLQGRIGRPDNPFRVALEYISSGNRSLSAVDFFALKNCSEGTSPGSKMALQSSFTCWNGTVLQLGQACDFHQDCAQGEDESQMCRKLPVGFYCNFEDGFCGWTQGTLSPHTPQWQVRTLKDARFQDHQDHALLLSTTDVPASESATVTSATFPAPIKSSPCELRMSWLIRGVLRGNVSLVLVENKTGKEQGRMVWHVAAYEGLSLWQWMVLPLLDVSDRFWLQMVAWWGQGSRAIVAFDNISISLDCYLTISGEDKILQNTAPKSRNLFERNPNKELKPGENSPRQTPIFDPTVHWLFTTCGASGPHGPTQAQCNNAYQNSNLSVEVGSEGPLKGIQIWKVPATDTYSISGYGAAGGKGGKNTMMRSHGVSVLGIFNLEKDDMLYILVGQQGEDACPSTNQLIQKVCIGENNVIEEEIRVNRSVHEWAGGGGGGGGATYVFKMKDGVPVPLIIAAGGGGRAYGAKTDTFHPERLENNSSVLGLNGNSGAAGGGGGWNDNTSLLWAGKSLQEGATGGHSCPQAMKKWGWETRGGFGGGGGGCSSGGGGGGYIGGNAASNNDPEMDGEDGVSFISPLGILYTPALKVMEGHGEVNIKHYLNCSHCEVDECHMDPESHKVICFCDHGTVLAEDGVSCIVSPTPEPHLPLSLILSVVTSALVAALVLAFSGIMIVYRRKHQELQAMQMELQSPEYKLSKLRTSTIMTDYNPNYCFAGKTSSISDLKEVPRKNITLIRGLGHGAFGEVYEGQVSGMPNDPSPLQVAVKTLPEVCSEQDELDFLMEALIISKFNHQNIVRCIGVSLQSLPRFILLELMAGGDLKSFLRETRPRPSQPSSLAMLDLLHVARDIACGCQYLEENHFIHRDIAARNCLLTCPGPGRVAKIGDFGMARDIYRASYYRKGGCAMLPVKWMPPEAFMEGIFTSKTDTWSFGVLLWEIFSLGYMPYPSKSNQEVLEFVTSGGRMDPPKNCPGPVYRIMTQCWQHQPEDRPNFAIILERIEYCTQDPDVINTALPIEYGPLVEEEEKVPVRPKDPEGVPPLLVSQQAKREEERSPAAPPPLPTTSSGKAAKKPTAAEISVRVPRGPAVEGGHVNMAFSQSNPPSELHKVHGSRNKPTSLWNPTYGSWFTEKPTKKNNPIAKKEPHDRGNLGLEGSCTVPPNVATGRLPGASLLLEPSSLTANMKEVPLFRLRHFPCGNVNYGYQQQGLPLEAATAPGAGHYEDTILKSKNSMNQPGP
T1 sequence (P06213 28-1382): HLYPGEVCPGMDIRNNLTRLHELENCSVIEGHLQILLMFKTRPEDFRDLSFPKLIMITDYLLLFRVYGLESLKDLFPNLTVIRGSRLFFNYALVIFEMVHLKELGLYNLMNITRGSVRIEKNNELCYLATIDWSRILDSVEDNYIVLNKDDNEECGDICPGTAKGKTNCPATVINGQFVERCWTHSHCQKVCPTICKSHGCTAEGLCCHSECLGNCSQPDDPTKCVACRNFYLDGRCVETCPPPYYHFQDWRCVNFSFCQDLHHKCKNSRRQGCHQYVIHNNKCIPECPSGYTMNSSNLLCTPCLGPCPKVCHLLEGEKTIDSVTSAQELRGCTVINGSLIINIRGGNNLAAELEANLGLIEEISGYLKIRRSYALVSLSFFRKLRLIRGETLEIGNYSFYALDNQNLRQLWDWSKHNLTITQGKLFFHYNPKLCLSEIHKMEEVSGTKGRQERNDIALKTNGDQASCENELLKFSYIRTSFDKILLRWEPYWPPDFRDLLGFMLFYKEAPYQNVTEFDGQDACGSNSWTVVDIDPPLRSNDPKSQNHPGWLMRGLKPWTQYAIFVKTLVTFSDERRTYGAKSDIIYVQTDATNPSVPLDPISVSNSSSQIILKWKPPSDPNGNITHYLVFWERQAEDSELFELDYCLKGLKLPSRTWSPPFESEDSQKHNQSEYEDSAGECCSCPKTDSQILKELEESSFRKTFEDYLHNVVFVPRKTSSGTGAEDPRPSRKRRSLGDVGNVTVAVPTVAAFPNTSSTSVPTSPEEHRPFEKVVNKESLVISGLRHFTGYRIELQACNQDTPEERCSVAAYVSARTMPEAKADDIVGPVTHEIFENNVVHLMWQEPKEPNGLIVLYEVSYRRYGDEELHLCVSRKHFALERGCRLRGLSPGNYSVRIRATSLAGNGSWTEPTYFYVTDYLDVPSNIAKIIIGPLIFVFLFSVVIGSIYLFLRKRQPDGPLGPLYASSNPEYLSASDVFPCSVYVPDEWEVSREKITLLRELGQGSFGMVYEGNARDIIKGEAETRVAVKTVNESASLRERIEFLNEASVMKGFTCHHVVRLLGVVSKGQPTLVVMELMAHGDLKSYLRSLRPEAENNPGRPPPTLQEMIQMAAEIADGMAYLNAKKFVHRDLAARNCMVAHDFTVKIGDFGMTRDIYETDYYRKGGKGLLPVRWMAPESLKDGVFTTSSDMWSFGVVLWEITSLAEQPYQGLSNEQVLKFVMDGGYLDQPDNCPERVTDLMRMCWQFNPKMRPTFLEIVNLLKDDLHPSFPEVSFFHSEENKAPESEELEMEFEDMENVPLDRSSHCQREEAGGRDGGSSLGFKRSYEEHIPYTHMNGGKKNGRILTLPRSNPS
Chain of AurB (Q96GD4 whole entry): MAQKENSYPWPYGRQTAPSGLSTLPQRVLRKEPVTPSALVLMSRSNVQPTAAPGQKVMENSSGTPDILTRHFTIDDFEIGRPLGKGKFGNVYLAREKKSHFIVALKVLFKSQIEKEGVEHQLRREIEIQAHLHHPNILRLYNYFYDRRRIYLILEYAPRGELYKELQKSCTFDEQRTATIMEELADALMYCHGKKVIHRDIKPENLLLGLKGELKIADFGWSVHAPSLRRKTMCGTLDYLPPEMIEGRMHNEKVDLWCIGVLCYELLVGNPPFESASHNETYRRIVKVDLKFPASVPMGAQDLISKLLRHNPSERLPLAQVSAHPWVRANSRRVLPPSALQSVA
Chain of Yes (P07947 whole entry): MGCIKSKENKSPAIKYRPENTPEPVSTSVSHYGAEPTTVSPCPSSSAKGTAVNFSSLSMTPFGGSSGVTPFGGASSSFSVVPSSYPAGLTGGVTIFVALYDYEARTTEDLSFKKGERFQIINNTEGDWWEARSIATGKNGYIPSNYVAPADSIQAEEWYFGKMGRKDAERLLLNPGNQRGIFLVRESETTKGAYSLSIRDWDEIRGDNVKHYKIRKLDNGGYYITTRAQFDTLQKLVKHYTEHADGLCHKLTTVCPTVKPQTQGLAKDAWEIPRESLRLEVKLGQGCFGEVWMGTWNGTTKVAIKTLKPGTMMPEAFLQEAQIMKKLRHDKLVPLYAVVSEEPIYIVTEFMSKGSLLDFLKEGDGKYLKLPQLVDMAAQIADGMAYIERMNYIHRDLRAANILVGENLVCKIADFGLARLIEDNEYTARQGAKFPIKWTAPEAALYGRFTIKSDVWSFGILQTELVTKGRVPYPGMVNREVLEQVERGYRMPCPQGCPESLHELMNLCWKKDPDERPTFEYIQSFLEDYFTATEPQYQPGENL
Protocol for AurB: (§1) The compound was tested at concentrations of 1.0×10^−8 and 1.0×10^−9 M in the RapidKinase192™ panel in duplicate. […] The screening was performed using the Caliper EZReader2, a 4-sipper LabChip, and ProfilerPro Kinase Selectivity Assay Kits 1 and 2. The assay measures the conversion of a fluorescent peptide substrate to a phosphorylated product. Briefly, the reaction mixture was introduced through a capillary sipper onto the microfluidic chip, where the substrate and product were electrophoretically separated and detected by laser-induced fluorescence. The time-dependent fluorescence signal indicates the extent of the reaction.
(§2) The assays were conducted using the Caliper LabChip 3000 and a 12-sipper LabChip as described above.
Protocol for AurC: as §1, §2
Protocol for INSR: as §1

In the case of `CC(C)c1cc(Nc2nc(N3CCCC3C(=O)Nc3ccc(F)nc3)nc3c2CCC3)n[nH]1` (single isomer, unassigned) [Compound 8b], the inhibition at 0.001 µM at INSR (setting [1]) was 40 to 59%; on Mer (setting [1]) it was less than 39%; at ROS(ROS1) (ROS (ROS1), 1 nM, read-out: Average % Inh @ 1 nM), 40 to 59%. The inhibition at 0.01 µM at INSR, at Mer and on ROS(ROS1) (ROS (ROS1)) was greater than 60% each time. Also, the IC50 against Mer (8 concentrations 3.0×10^−7 to 1.0×10^−10 M) came out at 3.84 nM; against ROS(ROS1) (ROS1, range of concentrations from 0.03 nM to 1), 15 nM; against AurB, 74.7 nM; against AurC, 41.4 nM.
On to `O=C(Nc1ccc(F)nc1)C1CCCN1c1nc2c(c(Nc3cc(C4CC4)[nH]n3)n1)CCC2` (single isomer, unassigned) [Compound 2b, 1-(4-(5-cyclopropyl-1H-pyrazol-3-ylamino)-6,7-dihydro-5H-cyclopenta[d]pyrimidin-2-yl)-N-(6-fluoropyridin-3-yl)pyrrolidine-2-carboxamide], for which the inhibition at 0.01 µM is less than 39% on INSR; 40 to 59% at Mer; greater than 60% at ROS(ROS1) (ROS (ROS1)); less than 39% at ALK (setting [4]); less than 39% on BMX (setting [4]); less than 39% at Fer (setting [4]). Besides, the inhibition at 0.01 µM at Yes (setting [4]) is less than 39%; on AurB (setting [5]), 40 to 59%; at AurC (setting [5]) it was greater than 60%. Further, the inhibition at 0.1 µM at INSR (setting [2]) is greater than 60%; on Mer (setting [2]), greater than 60%; on ROS(ROS1) (ROS (ROS1), 100 nM, read-out: Average % Inh @ 100 nM), greater than 60%; on ALK (setting [2]) it was less than 39%; on BMX (setting [2]), less than 39%; on Fer (setting [2]), greater than 60%. The inhibition at 0.1 µM on Yes (setting [2]) is 40 to 59%; at AurB (setting [6]), greater than 60%; at AurC (setting [6]) it was greater than 60%. Further, the inhibition at 1 µM at INSR (setting [3]) is greater than 60%; at Mer (setting [3]), greater than 60%; on ROS(ROS1) (ROS (ROS1), 1 μM, read-out: Average % Inh @ 1 μM), greater than 60%; at ALK (setting [3]), greater than 60%; on BMX (setting [3]), 40 to 59%; on Fer (setting [3]) it was greater than 60%. Besides, the inhibition at 1 µM at FGFR3, at Yes (setting [3]), on AurB (read-out: Average % Inh @ 1 μM) and on AurC (read-out: Average % Inh @ 1 μM) was greater than 60% in each case.

Broadly, the IC50 is the concentration that gives 50% inhibition. Read a high IC50 as lower potency.
